SMILES strings stand for the structures.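 Grown in 96-well plates, cells were treated for 48 hours with each compound at five concentrations. Insufficient inhibition: endpoint recorded as highest concentration tested. TGI: total growth inhibition.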

Among the test systems are SK-MEL-28 melanoma; A498 renal; IGROV1 ovarian; NCI-H226 lung; NCI-H460 lung; T-47D breast; A549 NSCLC; HCT-15 colon; CCRF-CEM leukemia; NCI-H522 lung; MCF7 breast; PC-3 prostate; OVCAR-3 ovarian; MDA-MB-231 breast; OVCAR-4 ovarian; UACC-257 melanoma; DU-145 prostate; SK-MEL-2 melanoma; HOP-92 NSCLC.
Common to all, as to test: DTP human tumour cell line panel, 48 h

`N=C(N)c1ccc(/C=C/c2ccc(C(=N)N)cc2)cc1`: the TGI (commonly the concentration giving total growth inhibition) in the assay with SK-MEL-28 melanoma is above 100 µM; in the assay with A498 renal, 73.7 µM; in the assay on IGROV1 ovarian, above 100 µM; in the assay with NCI-H226 lung, above 100 µM; in the assay on NCI-H460 lung, above 100 µM; with T-47D breast it was above 100 µM. The TGI in the assay on A549 NSCLC, in the assay with HCT-15 colon, in the assay with CCRF-CEM leukemia, in the assay on NCI-H522 lung, in the assay on MCF7 breast and with PC-3 prostate was above 100 µM throughout. The concentration for total growth inhibition (TGI) was above 100 µM in the assay on OVCAR-3 ovarian; above 100 µM with MDA-MB-231 breast; above 100 µM in the assay with OVCAR-4 ovarian; above 100 µM in the assay on UACC-257 melanoma; above 100 µM in the assay with DU-145 prostate; 87.3 µM with SK-MEL-2 melanoma. This compound also had a TGI in the assay on HOP-92 NSCLC above 100 µM.
Consider `O=C(C1OC1c1ccc(Cl)cc1)C12CC3CC(CC(C3)C1)C2` (stereo not given), for which the TGI is 32.5 µM in the assay with SK-MEL-28 melanoma; 46.7 µM in the assay with A498 renal; 67.4 µM in the assay on IGROV1 ovarian; 38.5 µM with NCI-H226 lung; 31.8 µM in the assay on NCI-H460 lung; above 100 µM in the assay on T-47D breast. The TGI in the assay with A549 NSCLC came out at 48.5 µM; in the assay with HCT-15 colon it was 82 µM; in the assay with CCRF-CEM leukemia, 52.3 µM; in the assay with NCI-H522 lung it was 42.5 µM; in the assay with MCF7 breast it was 73.9 µM; in the assay with PC-3 prostate, 79.9 µM. Moreover, the TGI is 30 µM with OVCAR-3 ovarian; 54.8 µM with MDA-MB-231 breast; 40 µM with OVCAR-4 ovarian; 54.7 µM with UACC-257 melanoma; above 100 µM in the assay with DU-145 prostate; 43.6 µM with SK-MEL-2 melanoma. Moreover, the TGI in the assay with HOP-92 NSCLC was 39 µM.
For `O=C(OCc1ccccc1)N(CCCCN(CCCNC(=O)C(F)(F)F)C(=O)OCc1ccccc1)CCCNC(=O)C(F)(F)F`, the TGI with SK-MEL-28 melanoma, in the assay with A498 renal, with IGROV1 ovarian, in the assay with NCI-H226 lung, in the assay with NCI-H460 lung and in the assay with T-47D breast was above 100 µM each time. Besides, the TGI in the assay on A549 NSCLC, in the assay on HCT-15 colon, with CCRF-CEM leukemia, with NCI-H522 lung, in the assay on MCF7 breast and in the assay on PC-3 prostate was above 100 µM throughout. The TGI in the assay with OVCAR-3 ovarian, in the assay with MDA-MB-231 breast, with OVCAR-4 ovarian, in the assay on UACC-257 melanoma, in the assay on DU-145 prostate and in the assay on SK-MEL-2 melanoma was above 100 µM each time. In the assay with HOP-92 NSCLC, this compound gave a TGI above 100 µM.
Consider `Nc1ncc(Br)c(NCC2(CO)CCC2)n1`, for which the TGI in the assay on SK-MEL-28 melanoma was above 100 µM; in the assay with A498 renal, above 100 µM; in the assay with IGROV1 ovarian, above 100 µM; with NCI-H226 lung, above 100 µM; with NCI-H460 lung, above 100 µM; in the assay on T-47D breast it was 63.4 µM. Also, the TGI in the assay with A549 NSCLC, in the assay with HCT-15 colon, in the assay on CCRF-CEM leukemia, with NCI-H522 lung, in the assay with MCF7 breast and in the assay on PC-3 prostate was above 100 µM in each case. The TGI in the assay with OVCAR-3 ovarian, in the assay on MDA-MB-231 breast, with OVCAR-4 ovarian, in the assay with UACC-257 melanoma, in the assay on DU-145 prostate and in the assay with SK-MEL-2 melanoma was above 100 µM throughout. Besides, in the assay with HOP-92 NSCLC, the total growth inhibition concentration (TGI) was above 100 µM.
Consider `CC(C)(C)c1cc(C(=O)/C=C/c2c(Cl)cccc2Cl)cc(C(C)(C)C)c1O`, for which the TGI in the assay on SK-MEL-28 melanoma was 41.3 µM; with A498 renal, above 100 µM; with IGROV1 ovarian, above 100 µM; with NCI-H226 lung it was 35.2 µM; in the assay on NCI-H460 lung, 24 µM; with T-47D breast, 18 µM. Moreover, the TGI with A549 NSCLC is above 100 µM; in the assay on HCT-15 colon, 27.9 µM; with CCRF-CEM leukemia, 22 µM; in the assay with NCI-H522 lung, 17.5 µM; with MCF7 breast it was 46 µM; in the assay on PC-3 prostate, above 63.9 µM. Also, the TGI was 25.3 µM in the assay on OVCAR-3 ovarian; 41.6 µM with MDA-MB-231 breast; above 100 µM in the assay on OVCAR-4 ovarian; 17.6 µM in the assay with UACC-257 melanoma; above 96.2 µM in the assay with DU-145 prostate; 26.4 µM in the assay on SK-MEL-2 melanoma. The concentration for total growth inhibition (TGI) in the assay on HOP-92 NSCLC is above 95.7 µM.
